This is an account of results in US10639285B2 (Aurea Biolabs Private Limited, priority 2014, dated 2020).

SMILES strings stand for the structures.

The nature of this data set: Absorption of curcumin and white curcumin in the blood plasma (FIG. 3). It is filed as in vivo.

Consider `COc1cc(C=CC(=O)CC(=O)C=Cc2ccc(O)c(OC)c2)ccc1O` [curcumin, 1,7 bis (4-hydroxy-3-methoxy phenyl)-1,6 heptadiene-3,5-dione], for which the “time of absorption in the blood plasma” value worked out at 2 h.
